≈ marks a conversion by molar mass, not a printed value.
System: fetal bovine heart-derived endothelial cells (FBHE cells)
Assay: Angiogenesis inhibiting activity test: inhibition of proliferation of cultured FBHE cells (neutral red uptake, 3 days)
Type: cell-based
Conditions: for IC50: Bos taurus, Endothelial cell, 3 days incubation, 10% FBS-added DME, 0.05% DMSO; for IC50 / FGF-/FGF+ ratio: FBHE cells; for FGF-/FGF+ ratio: ratio of IC50 without FGF to IC50 with FGF, 4320 min
Description: For use in this test, FBHE cells purchased from the ATCC were maintained by subculturing in a medium prepared by adding 20 ng/ml of fibroblast growth factor (FGF; Collaborative Research) to Dulbecco's modified Eagle's medium (DME; Nissui Seiyaku) supplemented with 10% fetal bovine serum (FBS). From two days before the start of the experiment, the addition of FGF was omitted and FBHE cells were cultured in DME with 10% FBS alone added. At the start of the experiment, the culture medium was removed, phosphate-buffered saline solution (PBS^(-); Nissui Seiyaku) was added instead, and cells were rinsed lightly. Then the PBS^(-) was removed, an adequate amount of 0.1% EDTA-0.2% trypsin solution was added and, after light rinsing, removed, and cells were stripped off. After addition of 10% FBS-added DME and sufficient pipetting, the cells stripped off were transferred to a centrifugal tube and centrifuged for washing (1,200 rpm, 5 minutes). The viable cell count was determined using a hemocytometer with the number of dead cells stained with trypan blue being substracted. The cell concentration was adjusted to 3×10^3 cells/well using 10% FBS-added DME. A cell suspension was thus prepared. […] For attaining test substance concentrations, serial double dilution was performed starting with 10 μg/ml. The following procedure was followed. Thus, to each well of 96-well Multiplates (Corning), there was added 50 μl of DME containing 10% FBS. Then, 50 μl of each test substance solution having the highest final concentration of 10 μg/ml was added to the well for the highest concentration and then serial dilution was carried out on each plate. Furthermore, 50 μl of FGF (5 ng/ml at maximum) was added to each well, followed by final addition of 100 μl of the cell suspension. The plates prepared by the above procedure were incubated in a carbon dioxide gas incubator for 3 days. After 3 days of incubation, neutral red was added to each well and the cells were allowed to take up the dye by 2 hours incubation in a carbon dioxide gas incubator. Thereafter, the cells were rinsed twice with PBS^(-) or physiological saline. Finally, 100 μl of acid alcohol (a 1:1 mixed solution prepared from 0.1 M aqueous monosodium phosphate solution and ethanol) was added to each well for dissolution thereinto of the dye taken up, and the absorbance of the resultant dye solution was determined using an absorptiometer. The absorbance values measured by the above procedure (3) for each dilution of each test substance with addition of FGF and without addition of FGF (normal condition) were plotted on a graph paper, and the test substance concentration required for 50% inhibition of the proliferation of cultured FBHE cells was determined from the graph obtained and expressed as an IC50 value.

[1] = 72 h, with addition of FGF (5 ng/ml at maximum)
[2] = 72 h, without addition of FGF (normal condition)

Compound | IC50 [1] [µg/mL] | IC50 [2] [µg/mL] | FGF-/FGF+ ratio | IC50 FGF- (72 h) [µg/mL]
CC(C)(C)c1cc(Nc2nccs2)cc(C(C)(C)C)c1O [Example 2, 2,6-Di-tert-butyl-4-[(2-thiazolyl)amino]phenol] | 0.89 (≈ 2.92 µM) | 10.7 (≈ 35.1 µM) | 12.0 | –
CCCCCc1sc(Nc2cc(C(C)(C)C)c(O)c(C(C)(C)C)c2)nc1C [Example 6] | 2.18 (≈ 5.61 µM) | 9.21 (≈ 23.7 µM) | 4.2 | –
Cc1nc(Nc2cc(C(C)(C)C)c(O)c(C(C)(C)C)c2)sc1C [Example 11, 2,6-Di-tert-butyl-4-[(4,5-dimethyl-2-thiazolyl)amino]phenol] | 6.14 (≈ 18.5 µM) | – | 4.2 | 25.94 (≈ 78 µM)
CCSc1sc(Nc2cc(C(C)(C)C)c(O)c(C(C)(C)C)c2)nc1C [Example 12, 2,6-Di-tert-butyl-4-[(4-methyl-5-ethylthio-2-thiazolyl)amino]phenol] | 1.55 (≈ 4.09 µM) | 6.53 (≈ 17.2 µM) | 4.2 | –
CCOC(=O)c1sc(Nc2cc(C(C)(C)C)c(O)c(C(C)(C)C)c2)nc1C [Example 18, 2,6-Di-tert-butyl-4-[(4-methyl-5-ethoxycarbonyl-2-thiazolyl)amino]phenol] | 1.92 (≈ 4.92 µM) | 11.9 (≈ 30.5 µM) | 6.2 | –
CC(C)(C)c1cc(Nc2nc(CO)cs2)cc(C(C)(C)C)c1O.Cl.Cl [Example 25, 2,6-di-tert-butyl-4-[(4-hydroxymethyl-2-thiazolyl)amino]phenol dihydrochlo ride] | 0.92 | 5.76 | 6.3 | –
CC(C)(C)c1cc(Nc2nc(C(=O)NN)cs2)cc(C(C)(C)C)c1O [Example 35, 2,6-di-di-tert-butyl-4-[(4-carbazoyl-2-thiazolyl)amino]phenol] | 0.61 (≈ 1.68 µM) | 3.66 (≈ 10.1 µM) | 6.0 | –
CCOC(=O)c1csc(Oc2cc(C(C)(C)C)c(O)c(C(C)(C)C)c2)n1 [Example 40, 2,6-di-tert-butyl-4-[(4-ethoxycarbonyl-2-thiazolyl)oxy]phenol] | 0.74 (≈ 1.96 µM) | 5.72 (≈ 15.2 µM) | 7.7 | –
CC(C)(C)c1cc(Sc2nccs2)cc(C(C)(C)C)c1O [Example 42, 2,6-Di-tert-butyl-4-(2-thiazolylthio)phenol] | 1.85 (≈ 5.75 µM) | 8.71 (≈ 27.1 µM) | 4.7 | –

— patent US5104889A, “Thiazole derivatives” (Otsuka Pharmaceutical Factory, Inc., priority 1986, dated 1992)
